Reference: patent US7091202B2, “4-arylspirocycloalkyl-2-aminopyrimidine carboxamide KCNQ potassium channel modulators” (Bristol-Myers Squibb Company, priority 2004, dated 2006)
pEC50: −log10 of the molar value.

The compounds below were run against T1, hQ23 (HEK-293 cell line stably transfected with one of the members of the KCNQ family) (Homo sapiens, UniProt O43525+O43526) (assay: Thallium flux assay for KCNQ channel blockers (FLIPR, BTC dye)). Conditions: hQ23 cells, thallium flux.
T1 construct: expressed in transfected cells; host or cells: HEK-293, stably transfected
Type: cell-based
Summary of the method: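 HEK-293 cells stably expressing a KCNQ member, loaded with BTC-AM (2 μM) in chloride-free buffer, pH 7.3; compounds added at 1% DMSO, then Tl2SO4 stimulus on FLIPR (488/540 nm, 60 s). Minimal active concentration set at ≥4 SD above negative control; IC50 from 10-point 1:3 series, single-site logistic fit versus the positive-control blocker.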

T1 sequence (O43526 whole entry): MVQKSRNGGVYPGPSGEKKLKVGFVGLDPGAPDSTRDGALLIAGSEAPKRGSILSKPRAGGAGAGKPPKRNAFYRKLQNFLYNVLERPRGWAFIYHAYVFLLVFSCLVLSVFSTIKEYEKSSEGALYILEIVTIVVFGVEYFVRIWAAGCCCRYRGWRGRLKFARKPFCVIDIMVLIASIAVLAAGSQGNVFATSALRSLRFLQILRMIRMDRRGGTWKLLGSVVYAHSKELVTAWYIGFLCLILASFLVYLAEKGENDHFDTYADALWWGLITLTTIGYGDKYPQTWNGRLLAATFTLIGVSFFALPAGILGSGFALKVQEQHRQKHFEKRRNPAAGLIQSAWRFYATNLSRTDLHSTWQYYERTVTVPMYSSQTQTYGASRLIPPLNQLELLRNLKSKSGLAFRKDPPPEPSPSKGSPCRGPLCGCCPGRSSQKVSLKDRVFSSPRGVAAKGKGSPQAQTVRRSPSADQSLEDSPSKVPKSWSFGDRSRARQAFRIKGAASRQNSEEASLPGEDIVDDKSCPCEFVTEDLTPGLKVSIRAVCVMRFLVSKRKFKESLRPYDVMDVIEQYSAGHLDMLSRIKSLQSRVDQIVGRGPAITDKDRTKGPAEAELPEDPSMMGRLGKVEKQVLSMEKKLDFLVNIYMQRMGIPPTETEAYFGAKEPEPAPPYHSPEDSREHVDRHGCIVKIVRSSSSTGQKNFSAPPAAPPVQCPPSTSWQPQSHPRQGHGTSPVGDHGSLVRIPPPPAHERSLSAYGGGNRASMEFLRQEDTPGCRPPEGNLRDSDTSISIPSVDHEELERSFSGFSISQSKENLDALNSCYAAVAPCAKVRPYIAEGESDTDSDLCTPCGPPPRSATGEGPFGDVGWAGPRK
T1 sequence (O43525 whole entry): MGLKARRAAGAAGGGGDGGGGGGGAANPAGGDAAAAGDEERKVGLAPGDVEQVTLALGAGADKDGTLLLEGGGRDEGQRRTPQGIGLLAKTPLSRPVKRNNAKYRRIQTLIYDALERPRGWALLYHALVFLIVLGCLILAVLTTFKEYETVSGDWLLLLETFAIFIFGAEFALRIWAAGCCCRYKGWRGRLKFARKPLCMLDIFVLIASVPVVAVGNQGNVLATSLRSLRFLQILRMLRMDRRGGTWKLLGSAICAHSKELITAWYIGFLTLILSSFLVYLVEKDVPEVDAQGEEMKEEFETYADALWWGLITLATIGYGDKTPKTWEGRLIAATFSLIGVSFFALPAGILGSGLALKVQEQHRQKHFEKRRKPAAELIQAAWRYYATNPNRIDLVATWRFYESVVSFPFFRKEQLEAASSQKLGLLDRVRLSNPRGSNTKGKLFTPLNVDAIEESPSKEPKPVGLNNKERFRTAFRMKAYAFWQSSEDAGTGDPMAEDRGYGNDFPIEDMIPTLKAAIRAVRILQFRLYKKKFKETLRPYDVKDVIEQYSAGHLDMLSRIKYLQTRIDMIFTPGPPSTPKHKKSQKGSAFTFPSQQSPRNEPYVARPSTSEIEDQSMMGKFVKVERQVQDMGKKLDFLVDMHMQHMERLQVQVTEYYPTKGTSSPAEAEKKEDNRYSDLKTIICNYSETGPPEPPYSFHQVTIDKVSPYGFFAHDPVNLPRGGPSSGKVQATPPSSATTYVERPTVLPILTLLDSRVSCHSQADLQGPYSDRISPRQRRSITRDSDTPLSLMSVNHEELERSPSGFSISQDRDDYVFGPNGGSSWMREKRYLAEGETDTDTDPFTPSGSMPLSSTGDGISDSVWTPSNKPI

Row | pEC50 | SMILES
1 | 6.43 | CCN(Cc1ccccc1)C(=O)c1cnc(N2CCCC(C)C2)nc1C1(c2ccc(F)cc2)CCCC1 (stereo not shown) [Example 229, 5-pyrimidinecarboxamide, N-ethyl-4-[1-(4-fluorophenyl)cyclopentyl]-2-(3-methyl-1-piperidinyl)-N-(phenylmethyl)-]
2 | 6.77 | CCN(Cc1ccccc1)C(=O)c1cnc(N2CCC(C)CC2)nc1C1(c2ccc(F)cc2)CCCC1 [Example 230, 5-pyrimidinecarboxamide, N-ethyl-4-[1-(4-fluorophenyl)cyclopentyl]-2-(4-methyl-1-piperidinyl)-N-(phenylmethyl)-]
3 | 6.10 | CCC(C)Nc1ncc(C(=O)N(CC)Cc2ccccc2)c(C2(c3ccc(F)cc3)CCCC2)n1 (stereo not shown) [Example 231, 5-pyrimidinecarboxamide, N-ethyl-4-[1-(4-fluorophenyl)cyclopentyl]-2-[(1-methylpropyl)amino]-N-(phenylmethyl)-]

Same assay, conditions: hQ23 cells, thallium flux assay

Row | pEC50 | SMILES
4 | 6.67 | O=C(NCc1ccc2c(c1)OCO2)c1cnc(N2CCCC2)nc1C1(c2ccc(F)cc2)CCCC1 [Example 235, 5-pyrimidinecarboxamide, N-(1,3-benzodioxol-5-ylmethyl)-4-[1-(4-fluorophenyl)cyclopentyl]-2-(1-pyrrolidinyl)-]
5 | 7.41 | CC1CCCN(c2ncc(C(=O)NCc3ccc4c(c3)OCO4)c(C3(c4ccc(F)cc4)CCCC3)n2)C1 (stereo not shown) [Example 236, 5-pyrimidinecarboxamide, N-(1,3-benzodioxol-5-ylmethyl)-4-[1-(4-fluorophenyl)cyclopentyl]-2-(3-methyl-1-piperidinyl)-]
6 | 6.27 | CC1CCN(c2ncc(C(=O)NCc3ccc4c(c3)OCO4)c(C3(c4ccc(F)cc4)CCCC3)n2)CC1 [Example 237, 5-pyrimidinecarboxamide, N-(1,3-benzodioxol-5-ylmethyl)-4-[1-(4-fluorophenyl)cyclopentyl]-2-(4-methyl-1-piperidinyl)-]
7 | 6.46 | CCC(C)Nc1ncc(C(=O)NCc2ccc3c(c2)OCO3)c(C2(c3ccc(F)cc3)CCCC2)n1 (stereo not shown) [Example 238, 5-pyrimidinecarboxamide, N-(1,3-benzodioxol-5-ylmethyl)-4-[1-(4-fluorophenyl)cyclopentyl]-2-[(1-methylpropyl)amino]-]
8 | 6.29 | CC(NC(=O)c1cnc(NC2CC2)nc1C1(c2ccc(F)cc2)CCCC1)c1cccc2ccccc12 (stereo not shown) [Example 240, 5-pyrimidinecarboxamide, 2-(cyclopropylamino)-4-[1-(4-fluorophenyl)cyclopentyl]-N-[1-(1-naphthalenyl)ethyl]-]

Continued, compound first:

Row | SMILES | pEC50
9 | CCN(Cc1ccccc1)C(=O)c1cnc(NC2CCCC2)nc1C1(c2ccc(F)cc2)CCCC1 [Example 232, 5-pyrimidinecarboxamide, 2-(cyclopentylamino)-N-ethyl-4-[1-(4-fluorophenyl)cyclopentyl]-N-(phenylmethyl)-] | 6.34
10 | O=C(NCc1ccc2c(c1)OCO2)c1cnc(NC2CC2)nc1C1(c2ccc(F)cc2)CCCC1 [Example 233, 5-pyrimidinecarboxamide, N-(1,3-benzodioxol-5-ylmethyl)-2-(cyclopropylamino)-4-[1-(4-fluorophenyl)cyclopentyl]-] | 6.36
11 | CC1CCC(Nc2ncc(C(=O)NCc3ccc4c(c3)OCO4)c(C3(c4ccc(F)cc4)CCCC3)n2)CC1 (stereo not shown) [Example 234, 5-pyrimidinecarboxamide, N-(1,3-benzodioxol-5-ylmethyl)-4-[1-(4-fluorophenyl)cyclopentyl]-2-[(4-methylcyclohexyl)amino]-] | 6.63
12 | CN(C)CCNc1ncc(C(=O)NCc2ccc3c(c2)OCO3)c(C2(c3ccc(F)cc3)CCCC2)n1 [Example 239, 5-pyrimidinecarboxamide, N-(1,3-benzodioxol-5-ylmethyl)-2-[[2-(dimethylamino)ethyl]amino]-4-[1-(4-fluorophenyl)cyclopentyl]-] | 6.10
13 | CC1CCC(Nc2ncc(C(=O)NC(C)c3cccc4ccccc34)c(C3(c4ccc(F)cc4)CCCC3)n2)CC1 (stereo not shown) [Example 241, 5-pyrimidinecarboxamide, 4-[1-(4-fluorophenyl)cyclopentyl]-2-[(4-methylcyclohexyl)amino]-N-[1-(1-naphthalenyl)ethyl]-] | 8.00
